Reference: patent US20250281497A1, “FUSED AMINO PYRIMIDINE COMPOUNDS FOR TREATMENT OF SEIZURE DISORDERS” (Ovid Therapeutics Inc., priority 2024, published 2025)

Key:
KCC2-S940A = biological target: T1, KCC2-S940A (Homo sapiens, UniProt Q9H2X9, S963A); experiment: Tl+ flux assay, KCC2-S940A construct; format: cell-based; conditions: HEK-293
T1 construct: expressed in transfected cells; host or cells: HEK-293
T1 sequence (Q9H2X9 1-1116 isoform Q9H2X9-2 S940A): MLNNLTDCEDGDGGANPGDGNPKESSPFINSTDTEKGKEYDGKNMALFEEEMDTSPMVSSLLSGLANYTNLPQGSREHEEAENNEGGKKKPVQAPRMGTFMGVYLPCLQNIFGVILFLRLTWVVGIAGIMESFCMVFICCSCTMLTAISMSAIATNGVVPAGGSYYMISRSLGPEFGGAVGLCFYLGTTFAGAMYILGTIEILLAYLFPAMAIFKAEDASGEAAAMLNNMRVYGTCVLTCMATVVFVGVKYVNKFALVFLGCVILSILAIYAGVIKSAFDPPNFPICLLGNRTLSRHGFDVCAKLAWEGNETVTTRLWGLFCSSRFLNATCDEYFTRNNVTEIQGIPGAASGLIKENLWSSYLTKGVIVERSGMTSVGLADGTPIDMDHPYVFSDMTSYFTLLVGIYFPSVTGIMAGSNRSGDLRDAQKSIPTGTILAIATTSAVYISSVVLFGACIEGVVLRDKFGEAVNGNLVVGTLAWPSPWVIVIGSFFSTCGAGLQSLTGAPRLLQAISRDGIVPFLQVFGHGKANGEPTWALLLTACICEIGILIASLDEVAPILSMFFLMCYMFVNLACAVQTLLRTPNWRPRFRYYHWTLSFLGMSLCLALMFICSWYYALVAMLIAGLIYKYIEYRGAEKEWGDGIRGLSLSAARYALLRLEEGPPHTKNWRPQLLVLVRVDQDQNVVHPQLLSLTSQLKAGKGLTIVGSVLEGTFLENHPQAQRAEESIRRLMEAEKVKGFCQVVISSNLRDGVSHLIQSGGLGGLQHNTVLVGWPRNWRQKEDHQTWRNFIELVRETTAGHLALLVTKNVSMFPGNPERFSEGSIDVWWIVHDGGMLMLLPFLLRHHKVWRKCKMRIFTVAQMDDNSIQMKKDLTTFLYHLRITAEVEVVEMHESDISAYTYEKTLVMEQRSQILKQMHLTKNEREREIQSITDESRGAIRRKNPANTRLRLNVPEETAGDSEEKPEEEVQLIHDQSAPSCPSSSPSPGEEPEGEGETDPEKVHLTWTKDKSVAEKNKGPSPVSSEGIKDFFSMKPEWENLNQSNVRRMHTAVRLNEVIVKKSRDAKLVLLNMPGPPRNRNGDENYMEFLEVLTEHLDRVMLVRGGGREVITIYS
Method: FLIPR TI Flux assay. HEK-293 cells were washed with HBSS, and then incubated with loading buffer containing TI sensitive fluorescent dye (https://www.moleculardevices.com), 20 μM bumetanide 20 μM ouabain and 2.5 mM probenecid for 1 h at room temperature (RT) under control conditions or with drugs in the dark using a FlexStation 3 microplate reader (Molecular Devices) and imaged […] for 30 min. Stimulus buffer was added containing 5 mM K^+/0.5 mM Tl^+ and cells were imaged every 1.5 over a 190 second time course The initial rate Tl^+ uptake (Relative Fluorescence Units (RFU) per second) was determined following addition of the stimulus buffer as outlined previously (Conway et at, 2017, supra) (Lee et at, 2022, supra).
Several studies have shown that the activity and plasma membrane accumulation of KCC2 is potentiated via phosphorylation of S940, a process mediated by the activity of protein kinase C and protein phosphatase 1 (Lee et al., 2011, supra; Lee et al., J Biol Chem 282, 29777-29784 (2007); Moore et al., Proc. Natl. Acad. Sci. U.S.A. 115, 10166-10171 (2018); Moore et al., Trends Neurosci. 40, 555-571 (2017); Silayeva et al., Proc. Natl. Acad. Sci. U.S.A. 112, 3523-3528 (2015)). […] Compared to KCC2, effects on KCC3, KCC4, and NKCC1 were only seen at concentrations more than 35-fold that of KCC2 (>100 μM) (FIG. 1G).

hippocampal neurons [1] = experiment: Whole cell patch clamp with imposed Cl− load, hippocampal neurons; format: cell-based, Sprague Dawley; conditions: 1 h incubation, 32 mM Cl− load; controls −47.4±2.3
Method: (§1) Neuronal Cultures. Hippocampal neurons were prepared from Sprague Dawley E18 embryos and plated at 450,000 per dish and maintained at 37° C. in a humidified 5% CO2 incubator for 10-25 days before experimentation (Lee et al., Nat. Neurosci. 14, 736-743 (2011)).
(§2) Neuronal Patch clamp assays. Neuronal cell culture recordings were performed in bath saline at 34° C. For gramicidin perforated-patch experiments, pipettes contained (in mM): 140 KCl and 10 HEPES, pH 7.4 KOH. For whole-cell experiments, pipettes contained (in mM): 115 K-meth-SO^4, 30 KCl, 2 Mg-ATP, 4 Na-ATP, 0.4 Na-GTP, and 10 HEPES, pH 7.4 KOH. Bath saline contained the following (in mM): 140 NaCl, 2.5 KCl, 2.5 CaCl2, 2.5 MgCl2, 10 HEPES, and 11 glucose, pH 7.4 NaOH (Kontou et at, 2021, supra). All compound solutions were applied to cells using a three-barreled 700 μm pipe positioned just above the cell (Warner Instruments). […] All voltages from whole-cell experiments were corrected offline using a calculated liquid junction potential value (13.6 mV) in Clampex (Molecular Devices). For gramicidin perforated-patch experiments, intracellular Cl^− values were back-calculated using measured EGABA values and the Nernst equation: […]
5 min after break-in, an initial EGABA value was determined and the effects of a subsequent 5 min incubation with VU0463271 was assessed.

hippocampal neurons [2] = experiment: Gramicidin perforated patch clamp, EGABA in hippocampal neurons; format: cell-based, Sprague Dawley; conditions: 300 nM
Method: as §1
At this developmental stage, GABAAR receptor activation leads to hyperpolarization, a phenomenon critically dependent upon KCC2 (Kontou et al., J Biol Chem, 100364 (2021)).
as §2

In the case of `C[C@@H]1CN(c2nc3c(c(Nc4ccc(C5CCCCC5)cc4)n2)COC3)CCO1` [Compound A, (R)—N-(4-cyclohexylphenyl)-2-(2-methylmorpholino)-5,7-dihydrofuro[3,4-d]pyrimidin-4-amine], the “activity of KCC2-S940A construct” value (KCC2-S940A) is reported as “increased the activity”, the “basal EGABA” value (hippocampal neurons [1]) is reported as −59.3±2.1 mV and the “reduction in Cl−” value (hippocampal neurons [2]; 15 min, from EGABA by Nernst equation) is reported as 2.2 ± 0.6 mM. The “EGABA at 15 min” value (hippocampal neurons [2]; from −75±3.1 at 0 min, bumetanide and TTX present) was −85.1±4.2 mV.
